Experimental data published in ChEMBL document CHEMBL1201862, “PubChem BioAssay data set” (2004).
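Following 48 hours of exposure in 96-well plates, responses at five concentrations were used to interpolate endpoints linearly. GI50: concentration for 50% inhibition of growth.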 Calls of active or inactive are those of the source. Rule as the data show it: active = GI50 up to about 1.1 µM and inactive = higher.

How the values were obtained:
Test in all cases: inhibition of tumour cell growth, NCI panel, 48 h
SNB-19 = test system: SNB-19
A498 = test system: A498
HCT-116 = test system: HCT-116
MDA-MB-231 = test system: MDA-MB-231
NCI-H23 = test system: NCI-H23
U-251 = test system: U-251
SK-MEL-2 = test system: SK-MEL-2
MCF7 = test system: MCF7
SR = test system: SR
DU-145 = test system: DU-145
HOP-62 = test system: HOP-62
M14 = test system: M14
HL-60 = test system: HL-60
NCI/ADR-RES = test system: NCI/ADR-RES
A549 = test system: A549
NCI-H460 = test system: NCI-H460
SK-MEL-28 = test system: SK-MEL-28
MDA-MB-435 = test system: MDA-MB-435
SK-MEL-5 = test system: SK-MEL-5
NCI-H522 = test system: NCI-H522
OVCAR-5 = test system: OVCAR-5
RPMI-8226 = test system: RPMI-8226
SF-268 = test system: SF-268
LOX IMVI = test system: LOX IMVI
IGROV-1 = test system: IGROV-1
EKVX = test system: EKVX
Malme-3M = test system: Malme-3M
SF-295 = test system: SF-295
SN12C = test system: SN12C
RXF 393 = test system: RXF 393
KM12 = test system: KM12
OVCAR-4 = test system: OVCAR-4
UO-31 = test system: UO-31
OVCAR-8 = test system: OVCAR-8
MDA-N = test system: MDA-N
UACC-257 = test system: UACC-257
PC-3 = test system: PC-3
786-0 = test system: 786-0
TK-10 = test system: TK-10
COLO 205 = test system: COLO 205
CCRF-CEM = test system: CCRF-CEM
HCC 2998 = test system: HCC 2998
MOLT-4 = test system: MOLT-4
SK-OV-3 = test system: SK-OV-3
SNB-75 = test system: SNB-75
HCT-15 = test system: HCT-15
HT-29 = test system: HT-29
Hs-578T = test system: Hs-578T
ACHN = test system: ACHN
T47D = test system: T47D
NCI-H226 = test system: NCI-H226
UACC-62 = test system: UACC-62
K562 = test system: K562
CAKI-1 = test system: CAKI-1
SF-539 = test system: SF-539
SW-620 = test system: SW-620
HOP-92 = test system: HOP-92
OVCAR-3 = test system: OVCAR-3

C=C[C@@]1(O)CCCC[C@@H]1CC(Sc1ccccc1)Sc1ccccc1
GI50 (SNB-19): 18 µM (inactive) | GI50 (A498): 24.4 µM (inactive) | GI50 (HCT-116): 15.6 µM (inactive) | GI50 (MDA-MB-231): 17.1 µM (inactive) | GI50 (NCI-H23): 17.2 µM (inactive) | GI50 (U-251): 16.7 µM (inactive) | GI50 (SK-MEL-2): 16 µM (inactive) | GI50 (MCF7): 16.7 µM (inactive) | GI50 (SR): 37.1 µM (inactive) | GI50 (DU-145): 17.7 µM (inactive) | GI50 (HOP-62): 16 µM (inactive) | GI50 (M14): 19.4 µM (inactive) | GI50 (HL-60): 49.8 µM (inactive) | GI50 (NCI/ADR-RES): 19.8 µM (inactive) | GI50 (A549): 15.9 µM (inactive) | GI50 (NCI-H460): 13.4 µM (inactive) | GI50 (SK-MEL-28): 25.4 µM (inactive) | GI50 (MDA-MB-435): 16.3 µM (inactive) | GI50 (SK-MEL-5): 17.1 µM (inactive) | GI50 (NCI-H522): 13.4 µM (inactive) | GI50 (OVCAR-5): 18.8 µM (inactive) | GI50 (RPMI-8226): 27.5 µM (inactive) | GI50 (SF-268): 15.5 µM (inactive) | GI50 (LOX IMVI): 19.6 µM (inactive) | GI50 (IGROV-1): 14.9 µM (inactive) | GI50 (EKVX): 15.3 µM (inactive) | GI50 (Malme-3M): 14.6 µM (inactive) | GI50 (SF-295): 14.7 µM (inactive) | GI50 (SN12C): 18.2 µM (inactive) | GI50 (RXF 393): 14.9 µM (inactive) | GI50 (KM12): 16.9 µM (inactive) | GI50 (OVCAR-4): 16.9 µM (inactive) | GI50 (UO-31): 17.2 µM (inactive) | GI50 (OVCAR-8): 17.9 µM (inactive) | GI50 (MDA-N): 20.1 µM (inactive) | GI50 (UACC-257): 17.4 µM (inactive) | GI50 (PC-3): 14.3 µM (inactive) | GI50 (786-0): 22.2 µM (inactive) | GI50 (TK-10): 15.7 µM (inactive) | GI50 (COLO 205): 18.3 µM (inactive) | GI50 (CCRF-CEM): 30.6 µM (inactive) | GI50 (HCC 2998): 13 µM (inactive) | GI50 (MOLT-4): 31.1 µM (inactive) | GI50 (SK-OV-3): 16.4 µM (inactive) | GI50 (SNB-75): 13.7 µM (inactive) | GI50 (HCT-15): 17.1 µM | GI50 (HT-29): 19.4 µM (inactive) | GI50 (Hs-578T): 15.5 µM (inactive) | GI50 (ACHN): 67.5 µM (inactive) | GI50 (T47D): 11.1 µM (inactive) | GI50 (NCI-H226): 21.8 µM (inactive) | GI50 (UACC-62): 8.59 µM (inactive) | GI50 (K562): 33 µM (inactive) | GI50 (CAKI-1): 14.8 µM (inactive)

CC(=O)[C@H]1[C@@H](OCc2ccccc2)O[N+]([O-])=C(C)[C@@H]1c1ccccc1
GI50 (SNB-19): 97.3 µM (inactive) | GI50 (A498): > 100 µM (inactive) | GI50 (SF-539): 18.6 µM (inactive) | GI50 (MDA-MB-231): 34.6 µM (inactive) | GI50 (NCI-H23): 54.7 µM (inactive) | GI50 (U-251): 44.5 µM (inactive) | GI50 (SK-MEL-2): 63.2 µM (inactive) | GI50 (MCF7): 30.8 µM (inactive) | GI50 (SR): 19.2 µM (inactive) | GI50 (DU-145): 43.8 µM (inactive) | GI50 (HOP-62): > 100 µM (inactive) | GI50 (M14): 36.1 µM (inactive) | GI50 (HL-60): 19 µM (inactive) | GI50 (NCI/ADR-RES): 39.1 µM (inactive) | GI50 (A549): 53.2 µM (inactive) | GI50 (NCI-H460): 53.8 µM (inactive) | GI50 (SK-MEL-28): 27.2 µM (inactive) | GI50 (MDA-MB-435): 45 µM (inactive) | GI50 (SW-620): 17.4 µM (inactive) | GI50 (SK-MEL-5): 48.5 µM (inactive) | GI50 (NCI-H522): 13.1 µM (inactive) | GI50 (OVCAR-5): > 100 µM (inactive) | GI50 (HOP-92): 24.8 µM (inactive) | GI50 (RPMI-8226): 14.7 µM (inactive) | GI50 (SF-268): 37.2 µM (inactive) | GI50 (LOX IMVI): 21 µM (inactive) | GI50 (IGROV-1): 35.8 µM (inactive) | GI50 (EKVX): 53.3 µM (inactive) | GI50 (Malme-3M): 26.4 µM (inactive) | GI50 (SF-295): 75.2 µM (inactive) | GI50 (RXF 393): 17.3 µM (inactive) | GI50 (KM12): 37.4 µM (inactive) | GI50 (OVCAR-4): 47.1 µM (inactive) | GI50 (UO-31): 20.8 µM (inactive) | GI50 (OVCAR-8): 30.4 µM (inactive) | GI50 (MDA-N): 41.7 µM (inactive) | GI50 (UACC-257): 34.7 µM (inactive) | GI50 (PC-3): 36.1 µM (inactive) | GI50 (786-0): 17.6 µM (inactive) | GI50 (TK-10): 56.1 µM (inactive) | GI50 (COLO 205): 42.7 µM (inactive) | GI50 (CCRF-CEM): 14.9 µM (inactive) | GI50 (HCC 2998): > 100 µM (inactive) | GI50 (MOLT-4): 17.2 µM (inactive) | GI50 (SK-OV-3): > 100 µM (inactive) | GI50 (SNB-75): > 100 µM (inactive) | GI50 (HCT-15): 27.7 µM | GI50 (HT-29): 19.6 µM (inactive) | GI50 (Hs-578T): 19.9 µM (inactive) | GI50 (ACHN): 26.4 µM (inactive) | GI50 (OVCAR-3): 24.7 µM (inactive) | GI50 (T47D): 21.3 µM (inactive) | GI50 (NCI-H226): 52.1 µM (inactive) | GI50 (UACC-62): 49.2 µM (inactive) | GI50 (K562): 14.5 µM (inactive) | GI50 (CAKI-1): 23.6 µM (inactive)

NCCCN(CCCN)CCN(CCN(CCCN)CCCN)CCN(CCCN)CCCN
GI50 (SNB-19): > 100 µM (inactive) | GI50 (HCT-116): > 100 µM (inactive) | GI50 (MDA-MB-231): > 100 µM (inactive) | GI50 (NCI-H23): > 100 µM (inactive) | GI50 (U-251): 66.1 µM (inactive) | GI50 (SK-MEL-2): > 100 µM (inactive) | GI50 (MCF7): > 100 µM (inactive) | GI50 (SR): > 100 µM (inactive) | GI50 (DU-145): > 100 µM (inactive) | GI50 (HOP-62): > 100 µM (inactive) | GI50 (M14): > 100 µM (inactive) | GI50 (HL-60): > 100 µM (inactive) | GI50 (NCI/ADR-RES): > 100 µM (inactive) | GI50 (A549): > 100 µM (inactive) | GI50 (NCI-H460): > 100 µM (inactive) | GI50 (SK-MEL-28): > 100 µM (inactive) | GI50 (MDA-MB-435): > 100 µM (inactive) | GI50 (SW-620): > 100 µM (inactive) | GI50 (SK-MEL-5): > 100 µM (inactive) | GI50 (NCI-H522): 17 µM (inactive) | GI50 (OVCAR-5): > 100 µM (inactive) | GI50 (HOP-92): 82.2 µM (inactive) | GI50 (RPMI-8226): > 100 µM (inactive) | GI50 (LOX IMVI): 67.8 µM (inactive) | GI50 (IGROV-1): > 100 µM (inactive) | GI50 (SF-295): 55.6 µM (inactive) | GI50 (SN12C): > 100 µM (inactive) | GI50 (OVCAR-4): > 100 µM (inactive) | GI50 (UO-31): > 100 µM (inactive) | GI50 (OVCAR-8): 44.6 µM (inactive) | GI50 (MDA-N): > 100 µM (inactive) | GI50 (UACC-257): > 100 µM (inactive) | GI50 (PC-3): > 100 µM (inactive) | GI50 (TK-10): > 100 µM (inactive) | GI50 (COLO 205): > 100 µM (inactive) | GI50 (CCRF-CEM): > 10 µM (inactive) | GI50 (HCC 2998): > 100 µM (inactive) | GI50 (MOLT-4): > 10 µM (inactive) | GI50 (SK-OV-3): 48.4 µM (inactive) | GI50 (SNB-75): 4.95 µM (inactive) | GI50 (HCT-15): > 100 µM | GI50 (HT-29): > 100 µM (inactive) | GI50 (Hs-578T): 23.5 µM (inactive) | GI50 (ACHN): > 100 µM (inactive) | GI50 (OVCAR-3): > 100 µM (inactive) | GI50 (T47D): 58.3 µM (inactive) | GI50 (NCI-H226): > 100 µM (inactive) | GI50 (K562): > 100 µM (inactive) | GI50 (CAKI-1): > 100 µM (inactive)
